# Measured values as given in patent US8785388B2, “TAT-BH3 methods for treating arthritis” (Saint Louis University, priority 2007, dated 2014).
# Square brackets hold non-standard residues; d marks the D form. Peptide text beside a SMILES is read from it. Orn = NCCC[C@H](N)C(=O)O
# Columns and labels:
# [1] = system: K/B×N serum transfer-induced arthritis; experiment: Histopathological scoring of ankle sections (H&E, safranin O/methyl green); assay type: in vivo, mice
# Protocol: (§1) Paraffin embedded ankle or liver sections were stained with hematoxylin and eosin (H&E), Safranin O and methyl green. Histopathological scoring was performed and ankle sections were evaluated by examining at least 3 sections/ankle and 3 fields/section at 400× magnification. H&E ankle sections were scored on a 0-5 scale for inflammation, with 0=normal, 1=minimal infiltration, 2=mild infiltration, 3=moderate infiltration, […], mad 5=severe infiltration. Bone erosion was scored on a 0-5 scale by viewing H&E ankle sections, with 0=no or normal bone resorption, 1=small areas of resorption, 2=more numerous areas of resorption, 3=obvious resorption, 4=full thickness defects in the bone without distortion of the profile, 5=full thickness defects in the bone with distortion of the profile. H&E ankle stained sections were scored on a 0-5 scale for pannus formation, with 0=no pannus formation, 1=minimal pannus formation, 2=mild pannus formation, 3=moderate pannus formation, 4=marked pannus formation, and 5=severe pannus formation. H&E and Safranin 0 and methyl green sections were scored on a 0-5 scale for cartilage damage, with 0=no damage, 1-2=superficial cartilage destruction, 3-4=cartilage destruction to middle zone, 5=cartilage destruction to tide mark. Polymorphonuclear (PMN) leukocyte infiltration: 0=no PMNs, 1=rare scattered PMNs, 2=more frequent scattered PMNs, 3=small clusters of PMNs, 4=larger clusters of PMNs, mad 5=sheets of PMNs (abscess). Histopathological scoring was conducted on an Olympus BX40 microscope (1000×). Photographs were taken on a Nikon microscope equipped with the Nikon digital camera DMX 1200.
# To accurately assess the degree of inflammation and destruction of cartilage and bone, ankle sections were examined using a histopathological scoring system on hematoxylin and eosin (H& E) or safranin O-methyl green stained ankle sections.
# Mcl-1 = Mcl-1 (Homo sapiens, UniProt Q07820); experiment: Affinity for Mcl-1; assay type: binding; details: statement without data
# Sequence of Mcl-1 (Q07820 whole entry, species assumed): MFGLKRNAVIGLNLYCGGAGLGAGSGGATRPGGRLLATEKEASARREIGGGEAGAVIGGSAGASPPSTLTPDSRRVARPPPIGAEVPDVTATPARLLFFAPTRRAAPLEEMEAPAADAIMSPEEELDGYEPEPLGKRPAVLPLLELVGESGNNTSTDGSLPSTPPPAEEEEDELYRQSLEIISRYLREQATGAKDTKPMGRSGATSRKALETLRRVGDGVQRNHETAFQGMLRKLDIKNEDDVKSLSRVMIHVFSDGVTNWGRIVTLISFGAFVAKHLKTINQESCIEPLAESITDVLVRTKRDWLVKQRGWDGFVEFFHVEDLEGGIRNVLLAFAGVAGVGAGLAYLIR
# [2] = system: K/B×N serum transfer-induced arthritis; experiment: K/B×N serum transfer-induced arthritis, ankle circumference (joint swelling); assay type: in vivo, mice; details: for reduction of development of arthritis: day 4
# Text: The seven-week-old progeny from homozygous KRN TCR transgenic mice (C57BL/6 background) crossed with non-obese diabetes (NOD) mice (K/B×N) were euthanized, peripheral blood was isolated, and serum were collected and pooled. One hundred and fifty microliters of K/B×N serum were intraperitoneally injected on each flank of 6-week old wt mice.
# (§2) At each time point and prior to euthanasia, the degree of arthritis as indicated by joint swelling was quantitated by measuring two perpendicular diameters of the ankles using a caliper (Lange Caliper: Cambridge Scientific Industries, Cambridge Mass.). Joint circumference was calculated using the geometric formula of ellipse circumference (2πX √(a^2+b^2)/2). Following euthanasia, serum was isolated from peripheral blood by cardiac stick and ankle joints were removed. One of the ankle joints was fixed in 10% neutral buffered formalin for 24 hours, decalcified in EDTA-decalcification buffer for two weeks, embedded in paraffin, and sectioned. The other ankle joint was placed in liquid nitrogen, grounded into a fine powder by mortal and pestle, digested in protein lysis buffer ([…], 0.5% NP-40, 50 mM Tris, and 2 mM EDTA) in the presence of phosphatase and protease inhibitors, and homogenized on ice for 20 seconds. To examine any toxicity due to systemic delivery of TAT-Bim peptides, alkaline phosphatase (ALP), […] (AST), alanine aminotransferase (ALT), and blood urea nitrogen levels were measured.
# Therefore, peptides to the BH3 domain of Bim were used that are fused to polycationic peptide derived from HIV-1 TAT. These peptides have shown to activate Bak and Bax, suppress Bcl-2 and Mcl-1, induce mitochondrial permeability, and release mitochondrial cytochrome c. Mice were intraperitoneally injected with K/B×N serum to induce the effector phase of inflammatory arthritis.
# [3] = system: mature neutrophils in bone marrow; experiment: Bone marrow neutrophil numbers (flow cytometry); assay type: in vivo, mice; details: as compared to saline and TAT-inactive BH3
# Protocol: Peripheral blood and bone marrow were isolated from mice following euthanasia. Total leukocyte numbers were determined using an automated hematology analyzer ABX Pentra 60 (Diamond Diagnostics, Inc, Holliston, Mass.). The red blood cells in peripheral blood were lysed and the remaining cells were fixed with BD FACS lysing solution (BD Biosciences, Pharmingen) following incubation with antibodies. Bone marrow cells were isolated by flushing Dulbecco's Modified Eagle Medium (DMEM) (Gibco, Grand Island, N.Y.) through the tibias and red blood cells were lysed with BD PharM Lyse (BD Biosciences, Pharmingen) prior to incubation with antibodies. Cells with incubated with Fc Block (BD Biosciences, Pharmingen) then stained with fluorochrome conjugated antibodies to CD45, CD11b, Gr-1, CD62L, Ly-6C, Ly-6G, CD31 (BD Biosciences, Pharmingen) or isotype control antibodies for 30 minutes. Cells were acquired on a BD LSRII (BD Biosciences, Pharmingen) using Diva Software at the Saint Louis University Core Flow Cytometry Facility. All analysis was performed using FlowJo software (Tree Star Inc.).
# TAT-BH3 peptides decrease the number of neutrophils in circulation and in bone marrow. We have shown that numbers of neutrophils and macrophages are reduced in the joints of mice treated with TAT-BH3 peptides.
# [4] = system: macrophages in arthritic joints; experiment: Macrophage numbers in ankle sections stained for F4/80 antigen; assay type: in vivo, mice
# Text: FIG. 4A is representative photomicrograph of ankle sections stained for F4/80 antigen from saline- and BH3-peptide treated mice.
# TAT-BH3 peptides treatment reduces the numbers of myeloid cells in arthritic joints. Neutrophils and macrophages are required for the development of K/B×N serum transfer induced arthritis 40-42. To this end, the numbers of polymorphonuclear cell and macrophages in saline and BH3 peptide arthritic mice were quantified. […] The milieu of the RA joint is crucial for the initiation and the perpetuation of inflammatory arthritis. Previous studies have shown that mice lacking Bim display increased levels of pro-inflammatory factors in the joint that is associated with increased numbers of neutrophils and macrophages and more articular destruction.
# [5] = Toxicity: serum ALP, AST, ALT, blood urea nitrogen and liver histology in arthritic mice; assay type: in vivo
# Protocol: as §2, §1
# [6] = as compared to saline or TAT-inactive BH3
# [7] = as compared to TAT-inactive BH3
# [8] = TAT-BH3 vs TAT-inactive BH3 and saline
smiles,measurement,setting,value
CC[C@H](C)[C@H](NC(=O)[C@H](CCCNC(=N)N)NC(=O)[C@H](CCCNC(=N)N)NC(=O)[C@H](CC(C)C)NC(=O)[C@H](CCC(=O)O)NC(=O)[C@H](CCC(N)=O)NC(=O)[C@H](C)NC(=O)[C@@H](NC(=O)[C@H](Cc1c[nH]c2ccccc12)NC(=O)[C@@H](NC(=O)[C@H](CCC(=O)O)NC(=O)[C@H](CCCNC(=N)N)NC(=O)[C@H](CCCNC(=N)N)NC(=O)[C@H](CCCNC(=N)N)NC(=O)[C@H](CCCN)NC(=O)[C@H](CCCNC(=N)N)NC(=O)[C@H](CCCNC(=N)N)NC(=O)[C@H](CCCCN)NC(=O)[C@H](CCCCN)NC(=O)[C@H](CCCNC(=N)N)NC(C)=O)[C@@H](C)CC)[C@@H](C)CC)C(=O)NCC(=O)N[C@@H](CC(=O)O)C(=O)N[C@@H](CCC(=O)O)C(=O)N[C@@H](Cc1ccccc1)C(=O)N[C@@H](CC(N)=O)C(=O)N[C@@H](C)C(=O)N[C@@H](Cc1ccc(O)cc1)C(=O)N[C@@H](Cc1ccc(O)cc1)C(=O)N[C@@H](C)C(=O)N[C@@H](CCCNC(=N)N)C(=O)O [TAT-BH3] (Ac-RKKRR[Orn]RRREIWIAQELRRIGDEFNAYYAR-OH),reduction in PMN score,[1]; as compared to TAT-inactive BH3 or saline,69%
same,decrease in bone erosion score,[1]; [6],71%
same,reduction in inflammation,[1]; [6],72%
same,suppression of pannus formation,[1]; [6],79%
same,affinity for Mcl-1,Mcl-1,high affinity
same,change in ankle circumference,"[2]; day 2 after K/B×N serum, 2 mg/kg i.p.",0.1 mm
same,reduction of development of arthritis,[2]; as compared to TAT-inactive BH3 peptide,72%
same,reduction of development of arthritis,[2]; as compared to saline,80%
same,decrease in numbers of mature neutrophils in bone marrow,[3],50%
same,average number of macrophages in the synovial lining,[4]; [7],no statistical difference
same,decrease in numbers of macrophages within the pannus region,[4]; [7],68%
same,decrease in numbers of macrophages within the pannus region,[4]; as compared to saline,77%
same,ALT levels,[5]; [8],statistical difference
same,BUN levels,[5]; [8],statistical difference
same,increase in ALP levels,[5]; [7],1.7 fold
same,increase in AST levels,[5]; [7],1.5 fold
same,increase in ALP levels,[5]; as compared to saline,1.4 fold
same,increase in AST levels,[5]; as compared to saline,1.3 fold
same,liver histology,[5]; liver sections of arthritic mice,no gross histologic abnormalities
